Assay results as given in patent US8785374B2, “Inhibitors of mammalian tight junction opening” (Alba Therapeutics Corporation, priority 2007, dated 2014).
Non-standard residues stand in square brackets, D forms with d. No end group written: not given here. pGlu = O=C1CC[C@@H](C(=O)O)N1; Gip = not defined here

How the values were obtained:
[1] = tested on: CaCo2 monolayers (tight junctions); assay: Inhibition of agonist-induced Lucifer Yellow flux through CaCo2 monolayers; conditions: for Reduced LY Permeability: inhibition of the increase in Lucifer Yellow permeability induced by SEQ ID NO:70 (FCIGRL), CaCo2 monolayers
Source text: (§1) Measurement of the Inhibition of the Decrease in Trans Epithelial Electric Resistance (TEER) and Epithelial Flux of a Fluorescent Marker Lucifer Yellow
(§2) Antagonists of tight junctions can be identified by their ability to prevent or decrease the enhancement of the flux of compounds (e.g. Lucifer Yellow) through the monolayer induced by agonists of tight junctions (e.g., SEQ ID NO: 70). Antagonists of tight junctions can also be identified by their ability to prevent the decrease in TEER induced by agonists of tight junctions (e.g., SEQ ID NO: 70).
(§3) Tight junction antagonists can be identified using the following method:
(§4) Prepare Modified Hank's Balanced Salt Solution (MHBSS) by obtaining IL bottle of HBSS removing 10 ml of HBSS and replacing it with 10 ml HEPES buffer pH 7.0. Adjust pH to 7.4±0.1 using concentrated NaOH (10N).
(§5) Remove Caco-2 cells from incubator, grown on 12-well, […], polycarbonate Transwell® filters (Corning) and record passage number, date cells seeded and age in days.
(§6) Aspirate cell culture medium from both the apical (AP) and basolateral (BL) compartments, replacing with 0.5 ml and 1.5 ml of MHBSS, respectively. Incubate cells at 37° C. for 30 minutes.
(§7) Prepare a stock solution of the Antagonist Pretreatment Solution by dissolving the appropriate amount of antagonist in MHBSS. Vortex or sonicate the solution until it is clear then adjust pH to 7.4±0.1 using 1N NaOH. Preincubate each filter for 30 min with these solutions at 37° C. and 50 RPM.
(§8) Prepare stock solutions of Antagonist Treatment Solution by dissolving appropriate amounts of antagonist and agonist (for example, a peptide agonist such as a peptide having the sequence FCIGRL (SEQ ID NO: 70)) in 7.5 mM Lucifer Yellow solution in MHBSS. Vortex or sonicate the solution until it is clear then adjust pH to 7.4±0.1 using 1N NaOH.
(§9) Aspirate Antagonist Pretreatment Solution from the apical compartment of each filter (n=3 per condition) and replace with 0.5 ml of control and test solutions.
(§10) Place all plates into incubator set at 37° C. (±0.2), 50 RPM (±5) for a total of 180 minutes.
At t=60, 120 and 180 minutes remove 100 μl from each basolateral compartment and place it in a 96-well plate for Lucifer Yellow analysis, replace with 100 μl of HBSS.
Make a Lucifer Yellow standard curve with the following dilutions (7500 μM, 3750 μM, 750 μM, 375 μM, 75 μM, 37.5 μM, 7.5 μM, 3.75 μM, 0.75 μM) and pipette 100 μL of each into a 96-well plate except for the first three standards mentioned above which require a 1:10 dilution prior to transferring to the 96-well plate.
At t=0 make 1:10 dilutions of each starting Antagonist Treatment Solution mentioned above and pipette 100 μL of each into a 96-well plate.
At t=180 make 1:10 dilutions of Antagonist Treatment Solution from the apical compartment of each filter and pipette 100 μL of each into the 96-well plate.
Analyze each 96-well plate in a Tecan Spectra Fluor Plus using Magellan at 485 and 535 nm.
(§11) Cells: Caco-2 cells passage 40-60 grown on Transwell® plates for 21-28 days
(§12) SEQ ID NO: 70 is a 6-mer peptide tight junction agonist having the sequence FCIGRL. See US patent publication US 2005/0059593 A1. In the following tables + indicates attenuation of the effects of the tight junction agonist were observed and − indicates no attenuation of the effects of the tight junction agonist were observed.

[2] = tested on: CaCo2 monolayers (tight junctions); assay: Inhibition of agonist-induced decrease in trans epithelial electric resistance (TEER) of CaCo2 monolayers; conditions: for Prevented TEER Reduction: inhibition of the reduction in TEER induced by SEQ ID NO:70 (FCIGRL), CaCo2 monolayers
Source text: as §1, §2, §3, §4, §5, §6
Using the MilliCell®-ERS instrument (Millipore), measure and record the transepithelial electrical resistance (TEER) across each filter and record.
as §7, §8, §9, §10
At t=30, 60, 120 and 180 minutes, measure and record the transepithelial electrical resistance (TEER) across each filter using the MilliCell-ERS instrument.
as §11, §12

[3] = agonist alone, compared to vehicle alone

| Substance | Reduced LY Permeability [1] | Prevented TEER Reduction [2] | Enhancement of Lucifer Yellow permeability through CaCo2 monolayers [1, 3] [fold] | Decrease of TEER in CaCo2 monolayers [2, 3] [fold] |
| --- | --- | --- | --- | --- |
| (d)Gln-(d)Pro-Gly ([dQ]-[dP]-Gly) [SEQ ID NO: 12] | − | − |  |  |
| (d)Gln-Pro-Gly ([dQ]-Pro-Gly) [SEQ ID NO: 10] | + | + |  |  |
| Ala-Pro-Gly (APG; Tight junction antagonist) [SEQ ID NO: 7] | + | + |  |  |
| Ala-Pro-Gly (APG; Tight junction antagonist) [SEQ ID NO: 17] | + | + |  |  |
| Arg-Pro-Gly (RPG; Tight junction antagonist) [SEQ ID NO: 20] | + | + |  |  |
| Asn-Pro-Gly (NPG; Tight junction antagonist) [SEQ ID NO: 27] | + | + |  |  |
| Asp-Pro-Gly (DPG; Tight junction antagonist) [SEQ ID NO: 19] | − | − |  |  |
| FCIGRL [FCIGRL, reference compound] |  |  | 51 | 16 |
| GGVLVQPG [SEQ ID NO: 1, reference compound] | + | + |  |  |
| GVLVQPG [SEQ ID NO: 2] | − | − |  |  |
| Gip-Pro-Ile ([Gip]-Pro-Ile; reading uncertain; also: printed as Gip-Pro-Ile) [SEQ ID NO: 67] | − | + |  |  |
| Gln-(d)Pro-Gly (Gln-[dP]-Gly) [SEQ ID NO: 11] | + | + |  |  |
| Gln-Ala-Gly (QAG; Tight junction antagonist) [SEQ ID NO: 8] | + | + |  |  |
| Gln-Pro-Ala (QPA; Tight junction antagonist) [SEQ ID NO: 9] | + | + |  |  |
| Gln-Pro-Gly (QPG; Tight junction antagonist) [SEQ ID NO: 6] | + | + |  |  |
| Glp-Arg-Gly ([pGlu]-Arg-Gly) [SEQ ID NO: 47] | − | − |  |  |
| Glp-Asn-Gly ([pGlu]-Asn-Gly) [SEQ ID NO: 46] | − | − |  |  |
| Glp-Asp-Gly ([pGlu]-Asp-Gly) [SEQ ID NO: 50] | − | − |  |  |
| Glp-Gln-Gly ([pGlu]-Gln-Gly) [SEQ ID NO: 37] | − | − |  |  |
| Glp-Glu-Gly ([pGlu]-Glu-Gly) [SEQ ID NO: 41] | − | − |  |  |
| Glp-Gly-Gly ([pGlu]-Gly-Gly) [SEQ ID NO: 48] | − | − |  |  |
| Glp-His-Gly ([pGlu]-His-Gly) [SEQ ID NO: 45] | − | − |  |  |
| Glp-Ile-Gly ([pGlu]-Ile-Gly) [SEQ ID NO: 43] | − | − |  |  |
| Glp-Leu-Gly ([pGlu]-Leu-Gly) [SEQ ID NO: 52] | − | − |  |  |
| Glp-Lys-Gly ([pGlu]-Lys-Gly) [SEQ ID NO: 39] | − | − |  |  |
| Glp-Met-Gly ([pGlu]-Met-Gly) [SEQ ID NO: 51] | − | − |  |  |
| Glp-Phe-Gly ([pGlu]-Phe-Gly) [SEQ ID NO: 40] | − | − |  |  |

| Substance | Reduced LY Permeability [1] | Prevented TEER Reduction [2] | Enhancement of Lucifer Yellow permeability through CaCo2 monolayers [1, 3] [fold] | Decrease of TEER in CaCo2 monolayers [2, 3] [fold] |
| --- | --- | --- | --- | --- |
| Glp-Pro-Arg ([pGlu]-Pro-Arg) [SEQ ID NO: 62] | − | − |  |  |
| Glp-Pro-Asn ([pGlu]-Pro-Asn) [SEQ ID NO: 54] | − | + |  |  |
| Glp-Pro-Asp ([pGlu]-Pro-Asp) [SEQ ID NO: 59] | − | − |  |  |
| Glp-Pro-Gln ([pGlu]-Pro-Gln) [SEQ ID NO: 53] | − | − |  |  |
| Glp-Pro-Glu ([pGlu]-Pro-Glu) [SEQ ID NO: 65] | − | − |  |  |
| Glp-Pro-Gly ([pGlu]-Pro-Gly) [SEQ ID NO: 35] | + | + |  |  |
| Glp-Pro-His ([pGlu]-Pro-His) [SEQ ID NO: 60] | − | − |  |  |
| Glp-Pro-Leu ([pGlu]-Pro-Leu) [SEQ ID NO: 61] | − | − |  |  |
| Glp-Pro-Lys ([pGlu]-Pro-Lys) [SEQ ID NO: 64] | − | − |  |  |
| Glp-Pro-Met ([pGlu]-Pro-Met) [SEQ ID NO: 68] | − | + |  |  |
| Glp-Pro-Phe ([pGlu]-Pro-Phe) [SEQ ID NO: 66] | − | − |  |  |
| Glp-Pro-Pro ([pGlu]-Pro-Pro) [SEQ ID NO: 57] | − | + |  |  |
| Glp-Pro-Ser ([pGlu]-Pro-Ser) [SEQ ID NO: 56] | − | − |  |  |
| Glp-Pro-Trp ([pGlu]-Pro-Trp) [SEQ ID NO: 58] | − | − |  |  |
| Glp-Pro-Tyr ([pGlu]-Pro-Tyr) [SEQ ID NO: 69] | − | + |  |  |
| Glp-Pro-Val ([pGlu]-Pro-Val) [SEQ ID NO: 63] | − | − |  |  |
| Glp-Ser-Gly ([pGlu]-Ser-Gly) [SEQ ID NO: 38] | − | − |  |  |
| Glp-Thr-Gly ([pGlu]-Thr-Gly) [SEQ ID NO: 42] | − | − |  |  |
| Glp-Trp-Gly ([pGlu]-Trp-Gly) [SEQ ID NO: 49] | − | − |  |  |
| Glp-Tyr-Gly ([pGlu]-Tyr-Gly) [SEQ ID NO: 44] | − | − |  |  |
| Glp-Val-Gly ([pGlu]-Val-Gly) [SEQ ID NO: 36] | − | − |  |  |
| Glu-Pro-Gly (EPG; Tight junction antagonist) [SEQ ID NO: 23] | + | + |  |  |
| Gly-(d)Pro-(d)Gln (Gly-[dP]-[dQ]) [SEQ ID NO: 16] | − | − |  |  |
| Gly-(d)Pro-Gln (Gly-[dP]-Gln) [SEQ ID NO: 14] | − | − |  |  |
| Gly-Pro-(d)Gln (Gly-Pro-[dQ]) [SEQ ID NO: 15] | − | − |  |  |
| Gly-Pro-Gln (GPQ; Tight junction antagonist) [SEQ ID NO: 13] | + | + |  |  |
| Gly-Pro-Gly (GPG; Tight junction antagonist) [SEQ ID NO: 22] | + | + |  |  |
